Literature values in US7601526B2 (priority 2004, dated 2009).

Test system: F. tularensis

SMILES	type of antibacterial action against F. tularensis
[H]/N=C(/N)N[C@H]1[C@H](O)[C@@H](O)[C@H](O[C@@H]2O[C@@H](C)[C@](O)(C=O)[C@H]2O[C@@H]2O[C@@H](CO)[C@H](O)[C@@H](O)[C@@H]2NC)[C@@H](N/C(N)=N\[H])[C@@H]1O [Streptomycin]	bactericidal
O=C(N[C@H](CO)[C@H](O)c1ccc([N+](=O)[O-])cc1)C(Cl)Cl [chloramphenicol]	bacteriostatic
